10 substances from patent publication US20200188475A1, “REAGENTS FOR INDUCING AN IMMUNE RESPONSE” (Dana-Farber Cancer Institute, Inc., priority 2007, published 2020) can be followed below.

The term Kd denotes the free concentration of one partner at which half of the binding sites on the other are occupied at equilibrium, for simple one-to-one binding.

Ends that are not written are not given here. * marks the point of attachment. R1 = nitroxide spin-labeled side chain, CC1(C)C=C(CS*)C(C)(C)N1[O]

For series [1], the system named is 4E10 antibody. Kind of series: SPR (BIAcore) 4E10 binding to MPER variant or spin-labeled peptides on liposomes. As to conditions: for 4E10 antibody binding to the spin-labeled MPER peptide: membrane-bound spin-labeled peptides, POPC/POPG liposomes; for decrease of 4E10 binding to the lipid-embedded MPER: mutation of N671 to residues occurring in other viral strains. (In SPR one partner is held on a chip, and binding of the other changes the refractive index at the surface.)

Series [2] has as its system liposomes. Kind of series: MPER binding to liposomes as a function of membrane composition. The following applies: liposomes of DMPC, 4:1 DOPC:DOPG or HIV membrane-mimicking composition; preliminary studies.
A short description of series [3]: Stability of MPER adsorption to lipid-enveloped PLGA microparticles in serum-containing medium (confocal imaging). The class given is physicochemical. As to conditions: culture medium containing 10% FCS in the presence of DCs, FITC-tagged MPER, qualitative; preliminary studies.
Series [4] can be described thus: Aqueous solubility of the MPER segment. In kind it is physicochemical.
Series [5] concerns the target MPER segment 662-683 of HXB2 strain HIV-1 gp160 (HIV-1 (HXB2 strain)). Kind of series: ITC at 25 °C, MPER peptide with virion membrane-like liposomes injected into 4E10 Fab.
The target is the same in series [6]. The series is described as follows: SPR, intact IgG over membrane-bound MPER, global fit with a two-step conformational change model.

Regarding “W672: MPER 662-683 peptide with cysteine substitution and nitroxide spin label R1 at position W672 (ELDKWASLWNC(R1)FNITNWLWYIK)”, the “4E10 antibody binding to the spin-labeled MPER peptide” value (“4E10 antibody binding” for short) in series [1] is listed as “completely abolished”.

As for ELDKWASLWNWFNITNWLWYIK [MPER], in series [2], the “order of MPER binding affinity by liposome composition” value is recorded as “DMPC<DOPC/DOPG<HIV mimic”. The “stability of MPER adsorption” value in series [3] was “stably adsorbed to lipid-enveloped PLGA microparticles for at least a few hours”. The “solubility in aqueous solutions” value in series [4] is recorded as “can only be solubilized in aqueous solutions in the presence of detergents or lipid vesicles”.

As to 4E10 antigen-binding fragment (Fab), in series [5], the Kd was determined as 1 µM, the enthalpy change is -105 kJ/mol and the entropic energy change (-TDS) is 70.7 kJ/mol.

Take “N671T: HXB2 MPER single amino acid variant, N671 to T (ELDKWASLWTWFNITNWLWYIK)”: in series [1], the “decrease of 4E10 binding to the lipid-embedded MPER” value (“decrease of 4E10 binding” below) was “severely”.

As to “N671D: HXB2 MPER single amino acid variant, N671 to D (ELDKWASLWDWFNITNWLWYIK)”, the “decrease of 4E10 binding” value in series [1] is reported as “severely”.

As to “T676: MPER 662-683 peptide with cysteine substitution and nitroxide spin label R1 at position T676 (ELDKWASLWNWFNIC(R1)NWLWYIK)”, the “4E10 antibody binding” value in series [1] is “completely abolished”.

For “F673: MPER 662-683 peptide with cysteine substitution and nitroxide spin label R1 at position F673 (ELDKWASLWNWC(R1)NITNWLWYIK)”, in series [1], the “4E10 antibody binding” value was “completely abolished”.

For “4E10 broadly neutralizing anti-gp41 antibody (intact IgG)”, in series [6], the Kd came to 0.01 µM.

Take “N671G: HXB2 MPER single amino acid variant, N671 to G (ELDKWASLWGWFNITNWLWYIK)”: the “decrease of 4E10 binding” value in series [1] is recorded as “severely”.

Turning to “N671S: HXB2 MPER single amino acid variant, N671 to S (ELDKWASLWSWFNITNWLWYIK)”, the “decrease of 4E10 binding” value in series [1] was “moderately”.
